Data: article PMC3277864 (Molecular Pharmaceutics, 2011)
Where a SMILES comes first, the peptide text is derived from it. [ ]: non-standard residue; d: D form. The star is where a group is joined. Dolaproine = CO[C@@H]([C@@H]1CCCN1)[C@@H](C)C(=O)O; Dil = CC[C@H](C)[C@H](NC)[C@@H](CC(=O)O)OC; X1 = C[C@@H](N*)[C@@H](O)c1ccccc1; NMeV = CN[C@H](C(=O)O)C(C)C

Legend:
4T1 mammary carcinoma = settings: murine breast cancer 4T1 model, 0.5 mg/kg; cited from earlier work
MDA-MB-435 cells [1] = settings: 72 hrs incubation period; cited from earlier work
HEK-293L cells = test: Cytotoxicity assay; type: cell-based, human; settings: 48 hrs incubation
MDA-MB-435 cells [2] = test: Cytotoxicity assay; type: cell-based, human; settings: 48 hrs incubation
BALB/c mice = test: Gross toxicity of mice; type: in vivo, mouse

CC[C@H](C)[C@@H]([C@@H](CC(=O)N1CCC[C@H]1[C@H](OC)[C@@H](C)C(=O)N[C@H](C)[C@@H](O)c1ccccc1)OC)N(C)C(=O)[C@@H](NC(=O)[C@@H](NC)C(C)C)C(C)C [MMAE, 1, monomethylauristatin E] (H-[NMeV]V[Dil][Dolaproine]-X1)
Animal death in 4T1 study (4T1 mammary carcinoma): all animals died
Activities to MDA-MB-435 cells (MDA-MB-435 cells [1]): subnanomolar to low nanomolar activities
In vitro cytotoxicity (comparison in words) (HEK-293L cells): more potent than the prodrugs 3 and 8
In vitro cytotoxicity (comparison in words) (MDA-MB-435 cells [2]): more potent than the prodrugs 3 and 8
Dose beyond which found considerably toxic to mice (BALB/c mice): 0.1 mg/kg
Death (%) (BALB/c mice; i.p. 5x, dose 0.1 mg/kg): 20%
Wt. loss (%) (BALB/c mice; i.p. 5x, dose 0.1 mg/kg, weighed for 3 weeks): 33.4%
Death (%) (BALB/c mice; i.p. 5x, dose 0.5 mg/kg): 100%
Death (%) (BALB/c mice; i.p. 5x, dose 1.5 mg/kg): 100%
